Results taken from ChEMBL document CHEMBL3885881, “DrugMatrix”.

Species: Rattus norvegicus
Test: DrugMatrix - Regimen: Daily Repeat
Type: toxicity, organism-based, Sprague-Dawley
Design: regimen Daily Repeat, gender Male, age 6-8 weeks
Settings: in vivo, po, route oral GAVAGE, […]; for ABSOLUTE BASOPHIL / ABSOLUTE EOSINOPHIL / ABSOLUTE LYMPHOCYTE / ABSOLUTE MONOCYTE / ABSOLUTE SEGMENTED NEUTROPHIL / BASOPHIL / EOSINOPHIL / ERYTHROCYTE COUNT / HEMATOCRIT / HEMOGLOBIN / LEUKOCYTE COUNT / LYMPHOCYTE / MEAN CORPUSCULAR HEMOGLOBIN / MEAN CORPUSCULAR HEMOGLOBIN CONCENTRATION / MEAN CORPUSCULAR VOLUME / MONOCYTE / NEUTROPHIL / NUCLEATED RED BLOOD CELLS / PLATELET COUNT: tissue Blood; for ALANINE AMINOTRANSFERASE / ALBUMIN / ALKALINE PHOSPHATASE / ASPARTATE AMINOTRANSFERASE / BLOOD UREA NITROGEN / CARBON DIOXIDE / CHLORIDE / CHOLESTEROL / CREATINE PHOSPHOKINASE / CREATININE / GLUCOSE / LACTATE DEHYDROGENASE / LIPASE / PHOSPHORUS / POTASSIUM / SODIUM / TOTAL BILIRUBIN / TOTAL PROTEIN / URIC ACID: tissue Plasma
[1] = 0 mg/kg, 72 h, dose level Control, time 3 day
[2] = 0 mg/kg, 120 h, dose level Control, time 5 day
[3] = 5 mg/kg, 72 h, dose level Low, time 3 day

In the case of `CC(C)n1c(/C=C/C(O)CC(O)CC(=O)O)c(-c2ccc(F)cc2)c2ccccc21` (centres undefined) [FLUVASTATIN], the “ABSOLUTE BASOPHIL” value [1] is reported as 0 CELLS/uL, the “ABSOLUTE EOSINOPHIL” value [1] is reported as 33 CELLS/uL and the “ABSOLUTE LYMPHOCYTE” value [1] is reported as 9048.5 CELLS/uL. The “ABSOLUTE MONOCYTE” value [1] was 80.17 CELLS/uL, the “ABSOLUTE SEGMENTED NEUTROPHIL” value [1] was 1521.67 CELLS/uL and the BASOPHIL [1] was 0%. For the same compound, the EOSINOPHIL [1] was 0.17%, the “ERYTHROCYTE COUNT” value [1] was 5.46 x10E6/uL and the HEMATOCRIT [1] was 32.87%. For the same compound, the HEMOGLOBIN [1] was 12.95 G/DL, the “LEUKOCYTE COUNT” value [1] was 10.68 x10E3/uL and the LYMPHOCYTE [1] was 86.67%. The “MEAN CORPUSCULAR HEMOGLOBIN” value [1] was 23.72 pg, the “MEAN CORPUSCULAR HEMOGLOBIN CONCENTRATION” value [1] was 39.4 G/DL and the “MEAN CORPUSCULAR VOLUME” value [1] was 60.18 fL. The MONOCYTE [1] was 0.83%, the NEUTROPHIL [1] was 12.33% and the “NUCLEATED RED BLOOD CELLS” value [1] was 0 /100WBC. The “PLATELET COUNT” value [1] was 1211.33 x10E3/uL, the “ALANINE AMINOTRANSFERASE” value [1] was 76.67 u/L and the ALBUMIN [1] was 3.93 G/DL. For the same compound, the “ALKALINE PHOSPHATASE” value [1] was 317.17 u/L, the “ASPARTATE AMINOTRANSFERASE” value [1] was 81.17 u/L and the “BLOOD UREA NITROGEN” value [1] was 12.33 mg/dL. For the same compound, the “CARBON DIOXIDE” value [1] was 31.17 mmol/L, the CHLORIDE [1] was 98.33 MEQ/L and the CHOLESTEROL [1] was 67.17 mg/dL. For the same compound, the “CREATINE PHOSPHOKINASE” value [1] was 312.33 u/L, the CREATININE [1] was 0.19 mg/dL and the GLUCOSE [1] was 165.5 mg/dL. The “LACTATE DEHYDROGENASE” value [1] was 94.5 u/L, the LIPASE [1] was 9.83 u/L and the PHOSPHORUS [1] was 10.1 mg/dL. For the same compound, the POTASSIUM [1] was 5.16 MEQ/L, the SODIUM [1] was 143.02 MEQ/L and the “TOTAL BILIRUBIN” value [1] was 0.2 mg/dL. For the same compound, the “TOTAL PROTEIN” value [1] was 5.88 G/DL, the “URIC ACID” value [1] was 0.68 mg/dL and the “ABSOLUTE BASOPHIL” value [2] was 0 CELLS/uL. For the same compound, the “ABSOLUTE EOSINOPHIL” value [2] was 14.67 CELLS/uL, the “ABSOLUTE LYMPHOCYTE” value [2] was 9629.83 CELLS/uL and the “ABSOLUTE MONOCYTE” value [2] was 72.5 CELLS/uL. For the same compound, the “ABSOLUTE SEGMENTED NEUTROPHIL” value [2] was 1049.67 CELLS/uL, the BASOPHIL [2] was 0% and the EOSINOPHIL [2] was 0.17%. For the same compound, the “ERYTHROCYTE COUNT” value [2] was 5.36 x10E6/uL, the HEMATOCRIT [2] was 33.82% and the HEMOGLOBIN [2] was 13.48 G/DL. The “LEUKOCYTE COUNT” value [2] was 10.77 x10E3/uL, the LYMPHOCYTE [2] was 90.17% and the “MEAN CORPUSCULAR HEMOGLOBIN” value [2] was 25.28 pg. For the same compound, the “MEAN CORPUSCULAR HEMOGLOBIN CONCENTRATION” value [2] was 39.92 G/DL, the “MEAN CORPUSCULAR VOLUME” value [2] was 63.3 fL and the MONOCYTE [2] was 0.67%. For the same compound, the NEUTROPHIL [2] was 9%, the “NUCLEATED RED BLOOD CELLS” value [2] was 0.17 /100WBC and the “PLATELET COUNT” value [2] was 1275.33 x10E3/uL. The “ALANINE AMINOTRANSFERASE” value [2] was 93.67 u/L, the ALBUMIN [2] was 4.17 G/DL and the “ALKALINE PHOSPHATASE” value [2] was 402.5 u/L. For the same compound, the “ASPARTATE AMINOTRANSFERASE” value [2] was 122.83 u/L, the “BLOOD UREA NITROGEN” value [2] was 14.75 mg/dL and the “CARBON DIOXIDE” value [2] was 26.4 mmol/L. The CHLORIDE [2] was 98.5 MEQ/L, the CHOLESTEROL [2] was 57.5 mg/dL and the “CREATINE PHOSPHOKINASE” value [2] was 305.17 u/L. The CREATININE [2] was 0.21 mg/dL, the GLUCOSE [2] was 142 mg/dL and the “LACTATE DEHYDROGENASE” value [2] was 83.5 u/L. For the same compound, the LIPASE [2] was 85.83 u/L, the PHOSPHORUS [2] was 8.18 mg/dL and the POTASSIUM [2] was 5.46 MEQ/L. For the same compound, the SODIUM [2] was 144 MEQ/L, the “TOTAL BILIRUBIN” value [2] was 0.25 mg/dL and the “TOTAL PROTEIN” value [2] was 5.63 G/DL. For the same compound, the “URIC ACID” value [2] was 0.8 mg/dL, the “ABSOLUTE BASOPHIL” value [3] was 0 CELLS/uL and the “ABSOLUTE EOSINOPHIL” value [3] was 0 CELLS/uL. For the same compound, the “ABSOLUTE LYMPHOCYTE” value [3] was 7777.67 CELLS/uL, the “ABSOLUTE MONOCYTE” value [3] was 91 CELLS/uL and the “ABSOLUTE SEGMENTED NEUTROPHIL” value [3] was 864.67 CELLS/uL. The BASOPHIL [3] was 0%, the EOSINOPHIL [3] was 0% and the “ERYTHROCYTE COUNT” value [3] was 5.27 x10E6/uL. For the same compound, the HEMATOCRIT [3] was 32.97%, the HEMOGLOBIN [3] was 13.1 G/DL and the “LEUKOCYTE COUNT” value [3] was 8.73 x10E3/uL. The LYMPHOCYTE [3] was 89%, the “MEAN CORPUSCULAR HEMOGLOBIN” value [3] was 24.87 pg and the “MEAN CORPUSCULAR HEMOGLOBIN CONCENTRATION” value [3] was 39.77 G/DL. The “MEAN CORPUSCULAR VOLUME” value [3] was 62.47 fL, the MONOCYTE [3] was 1% and the NEUTROPHIL [3] was 10%. For the same compound, the “NUCLEATED RED BLOOD CELLS” value [3] was 0 /100WBC, the “PLATELET COUNT” value [3] was 1163 x10E3/uL and the “ALANINE AMINOTRANSFERASE” value [3] was 67 u/L. For the same compound, the ALBUMIN [3] was 3.93 G/DL, the “ALKALINE PHOSPHATASE” value [3] was 305.67 u/L and the “ASPARTATE AMINOTRANSFERASE” value [3] was 95.33 u/L. The “BLOOD UREA NITROGEN” value [3] was 12 mg/dL, the “CARBON DIOXIDE” value [3] was 30.67 mmol/L and the CHLORIDE [3] was 98 MEQ/L. For the same compound, the CHOLESTEROL [3] was 76 mg/dL, the “CREATINE PHOSPHOKINASE” value [3] was 453.67 u/L and the CREATININE [3] was 0.18 mg/dL. The GLUCOSE [3] was 193.33 mg/dL, the “LACTATE DEHYDROGENASE” value [3] was 209.33 u/L and the LIPASE [3] was 9.67 u/L. The PHOSPHORUS [3] was 10.07 mg/dL, the POTASSIUM [3] was 5.48 MEQ/L and the SODIUM [3] was 142.9 MEQ/L. The “TOTAL BILIRUBIN” value [3] was 0.2 mg/dL, the “TOTAL PROTEIN” value [3] was 5.8 G/DL and the “URIC ACID” value [3] was 0.63 mg/dL.
